Data published in ChEMBL document CHEMBL3430912, “GSK Tres Cantos Anti-Kinetoplastid Screening (TCAKS) Data”.
pIC50: −log10 of the molar value.

Key:
Leishmania donovani [1] = assay: GSK_TCAKS: pIC50 Leishmania donovani Imaging: Infected Macrophages. Assay plates (384-well) were prepared by adding 250nL of compound to each well. For single shot assay, the final compound concentration was 5 uM. […] Automated image analysis was performed with a script developed on Acapella High Content Imaging and Analysis Software (PerkinElmer). Output: Percent of infected macrophage cells were reported for each well.; type: functional, organism-based, Homo sapiens; conditions: THP-1
Trypanosoma cruzi [2] = assay: (§1) GSK_TCAKS: pIC50 Trypanosoma cruzi Imaging: Amastigotes/Cell. […] Cells were then washed once with PBS before infection. T. cruzi trypomastigotes, collected at days 5 to 8 after infection from LLC-MK2 parasite infected cultures, were allowed to swim out for 4h at 37C from a centrifuged pellet (2,500 rpm/10 min/room temperature). Trypomastigotes were then collected and counted in a CASY Cell Counter. Trypomastigotes, in supplemented DMEM, were added to H9c2 cultures in a multiplicity of infection of 1 and incubated for 18 h. Cells were washed once with PBS before incubation of the infected H9c2 monolayer with trypsin (Life-Technologies) to detach cells from the flask. Cells were counted in a CASY Cell Counter using a 150 um capillary and their density set at 5 * 10^4 cells per mL in supplemented assay DMEM. Infected H9c2 were dispensed into 384-well poly-lysine coated assay plates at 50uL per well using a Multidrop Combi dispenser. After seeding them, the plates were incubated at 37C, 5% CO2 for 72h. Cultures were then fixed and stained by addition of 50 uL of a solution containing 8% formaldehyde and 4 uM DRAQ5 DNA dye (BioStatus, UK) per well. […] Five images were collected per well for reliable statistical analysis. Automated image analysis was performed with a script developed on Acapella High Content Imaging and Analysis Software (PerkinElmer). Output: number of amastigotes per cell as infection level measurement.; type: functional, organism-based, Rattus norvegicus; conditions: H9c2, 4 h
Trypanosoma cruzi [3] = assay: as §1, with “H2C9” for “Trypanosoma cruzi”, “H9c2 Host Cardiomyocytes.” for “Amastigotes/Cell.”, “Number” for “number”, “H9c2 Host Cardiomyocytes nuclei to determine drug-related cytotoxicity.” for “amastigotes per cell as infection level measurement.”; type: functional, organism-based, Rattus norvegicus; conditions: H9c2, 4 h
Leishmania donovani [4] = assay: GSK_TCAKS: pIC50 Leishmania donovani Imaging: Amastigotes/Macrophages. Assay plates (384-well) were prepared by adding 250nL of compound to each well. For single shot assay, the final compound concentration was 5 uM. […] Automated image analysis was performed with a script developed on Acapella High Content Imaging and Analysis Software (PerkinElmer). Output: Average number of amastigotes per macrophage cell were reported for each well.; type: functional, organism-based, Homo sapiens; conditions: THP-1
Trypanosoma cruzi [5] = assay: GSK_TCAKS: pIC50 Trypanosoma cruzi viability assay using beta-GAL activity. This assay was run at single shot at 5uM compound concentration per well. The biological reagents consisted of NIH-3T3 host cells and trypomastigotes parasitic cells; both cell types were set to a 3.3 * 10^5 cells/mL dilution in assay DMEM by means of a CASY cell counter device using a 60um capillary. 6 uL of the mixture were dispensed per well (about 1 * 10^3 host-cells and 1 * 10^3 parasites) with a Multidrop Combi dispenser. […] In all wells, the percentage of DMSO never exceeded 0.5%. Plates incubated for four days at 37C, 5% CO2. The substrate used for the assay fluorescence intensity (FLINT) readout was resorufin-beta-D-galactopiranoside (Sigma-Aldrich) at 5uM per well. It was diluted in PBS supplemented with the soft detergent Igepal (Fluka).; type: functional, organism-based, Mus musculus; conditions: Tulahuen, NIH3T3
[6] = test system: Trypanosoma brucei brucei; assay: GSK_TCAKS: pIC50 Trypanosoma brucei viability assay using fluorescence intensity. Assay plates (1536-well) were prepared by dispensing 25nL of compound solution per well using an Echo acoustic dispenser (Labcyte).; type: functional, organism-based; conditions: Lister 427, 2 h
[7] = GSK_TCAKS: pIC50 HepG2 human cell line viability assay using luminiscence. […] Seeding density was checked to ensure that new mono-layers were not more than 50% confluent at the time of harvesting. Cell suspension was added to 500 mL of the same medium at a final density of 1.2 * 10^5 cells/mL. This cell suspension was dispensed (25 uL, 3000 cells per well) into 384-well clear-bottom plates using a Multidrop Combi dispenser. Prior to addition of the cell suspension, the screening compounds (250 nL) were pre-dispensed into the plates with an Echo liquid handler. Plates were incubated for 48 h at 37C, 5% CO2. After incubation, plates equilibrated at room temperature for 30 min before proceeding to develop the luminescent signal. The signal developer, CellTiter-Glo Reagent, was allowed to equilibrate at room temperature for 30 min and added to the plates (25uL per well) using a Multidrop Combi dispenser. Plates were left for 10 min at room temperature for stabilization and then read using a ViewLux.; type: toxicity, cell-based
Trypanosoma cruzi [8] = assay: GSK_TCAKS: pIC50 Trypanosoma cruzi Imaging: Infected Cells. […] Cells were then washed once with PBS before infection. T. cruzi trypomastigotes, collected at days 5 to 8 after infection from LLC-MK2 parasite infected cultures, were allowed to swim out for 4h at 37C from a centrifuged pellet (2,500 rpm/10 min/room temperature). Trypomastigotes were then collected and counted in a CASY Cell Counter. Trypomastigotes, in supplemented DMEM, were added to H9c2 cultures in a multiplicity of infection of 1 and incubated for 18 h. Cells were washed once with PBS before incubation of the infected H9c2 monolayer with trypsin (Life-Technologies) to detach cells from the flask. Cells were counted in a CASY Cell Counter using a 150 um capillary and their density set at 5 * 10^4 cells per mL in supplemented assay DMEM. Infected H9c2 were dispensed into 384-well poly-lysine coated assay plates at 50uL per well using a Multidrop Combi dispenser. After seeding them, the plates were incubated at 37C, 5% CO2 for 72h. Cultures were then fixed and stained by addition of 50 uL of a solution containing 8% formaldehyde and 4 uM DRAQ5 DNA dye (BioStatus, UK) per well. […] Five images were collected per well for reliable statistical analysis. Automated image analysis was performed with a script developed on Acapella High Content Imaging and Analysis Software (PerkinElmer). Output: percentage of infected cells per well as a second infection marker.; type: functional, organism-based, Rattus norvegicus; conditions: H9c2, 4 h
[9] = test system: Trypanosoma brucei brucei; assay: GSK_TCAKS: pIC50 Trypanosoma brucei viability assay using luminiscence. Assay plates (1536-well) were prepared. T. brucei cultures were harvested and counted in a CASY cell counter. A parasite suspension was prepared at a final concentration of 5 * 10^4 cells/mL in complete HMI9 medium and 6uL was dispensed to all wells containing compounds using a Multidrop Combi dispenser. 6uL of HMI9 media with 0.4% DMSO were dispensed to control columns. Plates were incubated for 24 h at 37C, 5% CO2 then tempered for 10 min at room temperature. ATP content was quantified by adding 4 uL of CellTiter-Glo Reagent (Promega) according to the manufacturer's instructions. Luminescence was measured using a ViewLux.; type: functional, organism-based; conditions: Lister 427, CASY
[10] = target: Sterol 14-alpha demethylase (Trypanosoma cruzi (strain CL Brener), UniProt Q7Z1V1); assay: GSK_TCAKS: pIC50 CYP51 from Trypanosoma cruzi.; type: functional
Leishmania donovani [11] = assay: GSK_TCAKS: pIC50 Leishmania donovani Imaging: THP-1 Host Macrophages. Assay plates (384-well) were prepared by adding 250nL of compound to each well. For single shot assay, the final compound concentration was 5 uM. […] Automated image analysis was performed with a script developed on Acapella High Content Imaging and Analysis Software (PerkinElmer). Output: THP-1 cell count were reported for each well.; type: functional, organism-based, Homo sapiens
Leishmania donovani [12] = assay: GSK_TCAKS: pIC50 Leishmania donovani viability assay using fluorescence intensity. Assay plates (1536-well) were prepared by adding 30nL per well of compound. For single shot assay, the final compound concentration was 5uM. […] Briefly, eGFP LdBOB axenic amastigotes were harvested, fixed and counted in a CASY cell counter (Roche-Applied Science). A final concentration of 1.5 * 10^5 cells per well were prepared in amastigote media containing 500 U/mL penicillin/streptomycin (Invitrogen) and 6uL was dispensed to each experimental well using a Multidrop Combi dispenser (Thermo Scientific). 6uL of assay media was dispensed to control columns used as reference for 100% compound response. Following incubation for 72 h at 37C, 5% CO2, 2 uL of resazurin was added to each well at a final concentration of 0.5 mM in phosphate buffered saline (PBS) with IGEPAL (Sigma-Aldrich), 0.05% (v/v).; type: functional, organism-based

Chain of Sterol 14-alpha demethylase (Q7Z1V1 whole entry): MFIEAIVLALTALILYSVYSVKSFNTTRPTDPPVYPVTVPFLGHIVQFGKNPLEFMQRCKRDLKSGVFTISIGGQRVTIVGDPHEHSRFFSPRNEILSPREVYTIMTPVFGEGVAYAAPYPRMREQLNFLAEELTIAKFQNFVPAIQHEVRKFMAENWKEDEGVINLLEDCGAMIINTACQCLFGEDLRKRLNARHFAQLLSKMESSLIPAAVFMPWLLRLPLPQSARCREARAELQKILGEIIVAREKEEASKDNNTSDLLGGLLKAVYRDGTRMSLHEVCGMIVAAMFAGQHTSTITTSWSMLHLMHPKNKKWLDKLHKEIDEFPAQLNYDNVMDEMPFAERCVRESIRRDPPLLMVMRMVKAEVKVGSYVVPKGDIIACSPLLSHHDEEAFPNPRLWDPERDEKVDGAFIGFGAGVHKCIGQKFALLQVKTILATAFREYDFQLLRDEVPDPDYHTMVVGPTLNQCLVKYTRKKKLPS

SMILES	pIC50 (Leishmania donovani [1])	pIC50 (Trypanosoma cruzi [2])	pIC50 (Trypanosoma cruzi [3])	pIC50 (Leishmania donovani [4])	pIC50 (Trypanosoma cruzi [5])	pIC50 [6]	IC50 at 48 h [7]	pIC50 (Trypanosoma cruzi [8])	pIC50 [9]	pIC50 [10]	pIC50 (Leishmania donovani [11])	pIC50 (Leishmania donovani [12])
N#Cc1cccc(CNc2ccc(-c3cnn(CC4CC4)c(=O)c3C#N)cc2)c1	5.90	5.30	< 4.30	6.60	5.30	5.00	> 100 µM	5.10	4.90	5.20	5.20	4.60
Oc1cc(CSc2ccc(Cl)cc2)nc(-c2ccccn2)n1	5.30	6.10	5.50	5.70	6.00	6.10	> 100 µM	5.80	6.00	4.20	5.40	5.80
CCN(CC)c1nc(N(C)C)nc2c1CN(Cc1ccccc1)CC2	5.20	5.40	< 4.30	5.40	5.20	4.70	63.1 µM	4.70	4.70	5.00	4.40	5.10
COc1ccc(Nc2nccc(N(C)c3n[nH]c4c(F)cccc34)n2)cc1S(C)(=O)=O	5.60	5.70	5.10	6.00	5.70	5.20	20 µM	5.40	5.00	4.50	5.00	4.60
O=C(NCc1nnc2n1CCCCC2)c1csc(-c2ccccc2)n1	< 4.30	5.70	< 4.30	< 4.30	5.60	6.50	> 100 µM	5.70	6.40	< 4.00	< 4.30	< 4.30
CC(C)(C)CC(=O)NCc1noc(COc2ccccc2)n1	< 4.30	5.60	< 4.30	< 4.30	5.55	6.20	> 100 µM	5.60	6.10	4.30	< 4.30	< 4.30
O=C1CN(Cc2ccco2)C2CS(=O)(=O)CC2N1c1ccc(Cl)cc1 (configuration not stated)	< 4.30	< 4.30	< 4.30	< 4.30	< 4.30	6.50	> 100 µM	< 4.30	6.60	< 4.00	< 4.30	< 4.30
CCc1cccc(-n2nc(OCC(=O)NC3CCCC3)c3cccnc32)c1	6.00	< 4.30	< 4.30	5.90	< 4.30	< 4.40	> 100 µM	< 4.30	< 4.40	< 4.00	< 4.30	5.60
Cc1cc(Br)sc1CNCCCNc1cc(=O)c2ccccc2[nH]1	4.60	6.30	4.60	4.70	5.80	7.20	39.8 µM	6.10	7.00	4.20	4.70	< 4.30
N#Cc1cccc(Cc2cc(Nc3cc(C4CC4)[nH]n3)nc(N3CC[C@H]3C(N)=O)n2)c1	6.70	6.00	8.40	7.10	6.40	7.40	> 100 µM	5.40	7.20	4.30	7.50	6.20
C[C@@H](Oc1cc(-n2cnc3cc(N)ccc32)sc1C(N)=O)c1ccccc1Cl	4.50	5.30	6.00	4.70	5.90	6.60	20 µM	4.70	6.10	5.50	4.60	5.50
